In patent US11999704B1, “1-(2-hydroxybenzylideneamino)-5-phenylimidazolidine-2,4-dione as an antimicrobial compound” (KING FAISAL UNIVERSITY, priority 2023, dated 2024):

What was measured:
Aspergillus flavus = test: Agar plate disc-diffusion, antifungal activity (inhibition zone); assay type: cell-based; conditions: Sabouraud's dextrose agar, 37° C., 72 hours, DMSO zone subtracted; for inhibition zone, Aspergillus flavus, A: A = concentration of comp. = 10,000 μL; for inhibition zone, Aspergillus flavus, B: B = concentration of comp. = 30.000 μL; for inhibition zone, Aspergillus flavus, C: C = concentration of comp. = 50,000 μL
Protocol: (§1) The agar plate disc-diffusion method was applied. Sterilized filter papers (6 mm in diameter) were wetted with 10 μL of a solution of 1-(2-hydroxybenzylideneamino)-5-phenylimidazolidine-2,4-dione (4) to be tested, containing 10 mg/mL in DMSO, and the discs were allowed to air dry. The discs were then placed onto the surface of agar plates (nutrient agar for bacteria and Sabouraud's dextrose agar for fungi) seeded with the test organism. Each plate contained 15 mL of the agar medium, previously seeded with 0.2 mL of the broth culture of each organism pregrown for 18 hours. The plates were incubated at 37° C. for 48 hours, and 72 hours for fungi. The inhibition zones was measured in millimeter. Discs impregnated with DMSO were used as a control, and its inhibition zone was subtracted from the tested compound actual inhibition zone.
(§2) The results of the antimicrobial testing can be observed in Tables 1 and 2, below, with ciprofloxacin serving as a reference.

[1] = test system: Chrysosporium keratinophilum; test: as above; assay type: cell-based; conditions: Sabouraud's dextrose agar, 37° C., 72 hours, DMSO zone subtracted; for inhibition zone, Chrysosporium keratinophilum, A: A = concentration of comp. = 10,000 μL; for inhibition zone, Chrysosporium keratinophilum, B: B = concentration of comp. = 30.000 μL; for inhibition zone, Chrysosporium keratinophilum, C: C = concentration of comp. = 50,000 μL
Protocol: as §1, §2

Bacillus Cereus = test: Agar plate disc-diffusion, antibacterial activity (inhibition zone); assay type: cell-based; conditions: nutrient agar, 37° C., 48 hours, DMSO zone subtracted; for inhibition zone, Bacillus Cereus, B: B = concentration of comp. = 30.000 μL; for inhibition zone, Bacillus Cereus, C: C = concentration of comp. = 50,000 μL
Protocol: as §1, §2

Staphylococcus aureus = test: as above; assay type: cell-based; conditions: nutrient agar, 37° C., 48 hours, DMSO zone subtracted; for inhibition zone, Staphylococcus aureus, A: A = concentration of comp. = 10,000 μL; for inhibition zone, Staphylococcus aureus, B: B = concentration of comp. = 30.000 μL; for inhibition zone, Staphylococcus aureus, C: C = concentration of comp. = 50,000 μL
Protocol: as §1, §2

Escherichia coli = test: as above; assay type: cell-based; conditions: nutrient agar, 37° C., 48 hours, DMSO zone subtracted; for inhibition zone, Escherichia coli, A: A = concentration of comp. = 10,000 μL; for inhibition zone, Escherichia coli, B: B = concentration of comp. = 30.000 μL; for inhibition zone, Escherichia coli, C: C = concentration of comp. = 50,000 μL
Protocol: as §1, §2

Pseudomonas aeruginosa = test: as above; assay type: cell-based; conditions: nutrient agar, 37° C., 48 hours, DMSO zone subtracted; for inhibition zone, Pseudomonas aeruginosa, A: A = concentration of comp. = 10,000 μL; for inhibition zone, Pseudomonas aeruginosa, B: B = concentration of comp. = 30.000 μL; for inhibition zone, Pseudomonas aeruginosa, C: C = concentration of comp. = 50,000 μL
Protocol: as §1, §2

In the case of `O=C(O)c1cn(C2CC2)c2cc(N3CCNCC3)c(F)cc2c1=O` [Cip., ciprofloxacin, reference compound], the “inhibition zone, Aspergillus flavus, A” value (Aspergillus flavus) is reported as 29 millimeter, the “inhibition zone, Aspergillus flavus, B” value (Aspergillus flavus) is reported as 30 millimeter and the “inhibition zone, Aspergillus flavus, C” value (Aspergillus flavus) is reported as 42 millimeter. For the same compound, the “inhibition zone, Chrysosporium keratinophilum, A” value [1] was 29 millimeter, the “inhibition zone, Chrysosporium keratinophilum, B” value [1] was 30 millimeter and the “inhibition zone, Chrysosporium keratinophilum, C” value [1] was 53 millimeter. For the same compound, the “inhibition zone, Bacillus Cereus, A” value (Bacillus Cereus) was 29 millimeter, the “inhibition zone, Bacillus Cereus, B” value (Bacillus Cereus) was 30 millimeter and the “inhibition zone, Bacillus Cereus, C” value (Bacillus Cereus) was 42 millimeter. The “inhibition zone, Staphylococcus aureus, A” value (Staphylococcus aureus) was 43 millimeter, the “inhibition zone, Staphylococcus aureus, B” value (Staphylococcus aureus) was 44 millimeter and the “inhibition zone, Staphylococcus aureus, C” value (Staphylococcus aureus) was 53 millimeter. For the same compound, the “inhibition zone, Escherichia coli, A” value (Escherichia coli) was 30 millimeter, the “inhibition zone, Escherichia coli, B” value (Escherichia coli) was 39 millimeter and the “inhibition zone, Escherichia coli, C” value (Escherichia coli) was 60 millimeter. The “inhibition zone, Pseudomonas aeruginosa, A” value (Pseudomonas aeruginosa) was 29 millimeter, the “inhibition zone, Pseudomonas aeruginosa, B” value (Pseudomonas aeruginosa) was 30 millimeter and the “inhibition zone, Pseudomonas aeruginosa, C” value (Pseudomonas aeruginosa) was 53 millimeter.

With `O=C1NC(=O)N(/N=C/c2ccccc2O)C1c1ccccc1` (stereo not shown) [Compound 4, 1-(2-hydroxybenzylideneamino)-5-phenylimidazolidine-2,4-dione] the “inhibition zone, Aspergillus flavus, A” value (Aspergillus flavus) was 24 millimeter, the “inhibition zone, Aspergillus flavus, B” value (Aspergillus flavus) was 28 millimeter and the “inhibition zone, Aspergillus flavus, C” value (Aspergillus flavus) was 38 millimeter. For the same compound, the “inhibition zone, Chrysosporium keratinophilum, A” value [1] was 27 millimeter, the “inhibition zone, Chrysosporium keratinophilum, B” value [1] was 29 millimeter and the “inhibition zone, Chrysosporium keratinophilum, C” value [1] was 48 millimeter. For the same compound, the “inhibition zone, Bacillus Cereus, A” value (Bacillus Cereus) was 23 millimeter, the “inhibition zone, Bacillus Cereus, B” value (Bacillus Cereus) was 27 millimeter and the “inhibition zone, Bacillus Cereus, C” value (Bacillus Cereus) was 35 millimeter. The “inhibition zone, Staphylococcus aureus, A” value (Staphylococcus aureus) was 15 millimeter, the “inhibition zone, Staphylococcus aureus, B” value (Staphylococcus aureus) was 19 millimeter and the “inhibition zone, Staphylococcus aureus, C” value (Staphylococcus aureus) was 27 millimeter. The “inhibition zone, Escherichia coli, A” value (Escherichia coli) was 27 millimeter, the “inhibition zone, Escherichia coli, B” value (Escherichia coli) was 36 millimeter and the “inhibition zone, Escherichia coli, C” value (Escherichia coli) was 49 millimeter. For the same compound, the “inhibition zone, Pseudomonas aeruginosa, A” value (Pseudomonas aeruginosa) was 20 millimeter, the “inhibition zone, Pseudomonas aeruginosa, B” value (Pseudomonas aeruginosa) was 26 millimeter and the “inhibition zone, Pseudomonas aeruginosa, C” value (Pseudomonas aeruginosa) was 37 millimeter. It also gave a melting point of 161 to 163 °C.
